Measured values published in patent US20200225244A1, “COMPOSITIONS AND METHODS FOR ASSESSING PAINFUL DEMYELINATING AND NONDEMYELINATING DISEASES” (Sanford Burnham Prebys Medical Discovery Institute, priority 2017, published 2020).

What was measured:
[1] = system: gelatinolytic urinary MMPs; conditions: 20 mM EDTA; urine of CCI rats, day 0, 1 and 28
Method: The urine samples collected at day 0 (prior to injury) and days 1 and 28 post-CCI (n=4-6/group) were equilibrated in MMP buffer, pH 7.5 and then the protein concentrations were determined using the Bradford assay and made even by sample dilution in MMP buffer, pH 7.5. Dialyzed urine samples were analyzed by gelatin zymography. […] The urine samples collected at day 0 (CTR) and 28 post-CCI (CCI) (n=4-5/group) were equilibrated in MMP buffer, pH 7.5, and then the protein concentrations were determined using the Bradford assay. Dialyzed urine samples were co-incubated with the fluorescent Mca-PLGL-Dpa-AR-NH2 MMP substrate in the presence and the absence of GM6001, a broad-spectrum hydroxamate MMP inhibitor.
The dialyzed rat urine samples equilibrated in MMP buffer, pH 7.5, the crude nerve extracts and the MMP-9 samples isolated from sciatic nerve were analyzed by gelatin zymography in a 10% acrylamide-0.1% gelatin gel. […] Where indicated, gels were incubated in 20 mM EDTA to inactivate MMP activity.

[2] = target: T1, α2δ1 subunit of the voltage-gated Ca^2+ channel (Homo sapiens, UniProt P54289); conditions: animal studies; Ohashi et al. 2008; cited from earlier work
T1 construct: PD-217,014 produces visceral analgesic effects in animal studies
T1 sequence (P54289 25-1103): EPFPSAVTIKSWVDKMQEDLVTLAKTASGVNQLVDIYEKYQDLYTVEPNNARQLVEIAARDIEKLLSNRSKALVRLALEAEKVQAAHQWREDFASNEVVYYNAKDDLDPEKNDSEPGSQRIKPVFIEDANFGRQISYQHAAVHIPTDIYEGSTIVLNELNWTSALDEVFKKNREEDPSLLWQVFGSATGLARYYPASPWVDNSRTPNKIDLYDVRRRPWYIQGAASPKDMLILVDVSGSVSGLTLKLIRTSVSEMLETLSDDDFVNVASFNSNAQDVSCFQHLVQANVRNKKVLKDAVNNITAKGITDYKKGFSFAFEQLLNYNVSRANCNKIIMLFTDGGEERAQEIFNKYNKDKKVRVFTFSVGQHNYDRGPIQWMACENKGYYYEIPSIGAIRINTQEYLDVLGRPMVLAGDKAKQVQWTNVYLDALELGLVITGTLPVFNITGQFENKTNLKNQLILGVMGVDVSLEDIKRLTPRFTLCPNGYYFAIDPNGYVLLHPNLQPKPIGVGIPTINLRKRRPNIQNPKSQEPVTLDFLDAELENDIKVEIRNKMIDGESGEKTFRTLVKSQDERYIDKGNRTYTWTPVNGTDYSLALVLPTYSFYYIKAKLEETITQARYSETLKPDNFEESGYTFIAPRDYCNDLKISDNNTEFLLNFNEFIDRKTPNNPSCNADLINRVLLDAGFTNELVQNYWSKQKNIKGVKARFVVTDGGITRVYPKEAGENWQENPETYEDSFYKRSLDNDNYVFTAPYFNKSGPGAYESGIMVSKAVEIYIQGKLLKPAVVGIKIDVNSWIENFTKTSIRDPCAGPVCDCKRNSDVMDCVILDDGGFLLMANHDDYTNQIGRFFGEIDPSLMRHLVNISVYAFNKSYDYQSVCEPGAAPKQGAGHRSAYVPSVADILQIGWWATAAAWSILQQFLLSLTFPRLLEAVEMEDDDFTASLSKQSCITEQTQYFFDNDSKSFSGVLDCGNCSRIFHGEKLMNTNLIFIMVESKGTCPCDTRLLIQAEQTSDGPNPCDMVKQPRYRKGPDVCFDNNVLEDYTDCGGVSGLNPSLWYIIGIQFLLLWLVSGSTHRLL
T1 sequence (P54289 957-1103): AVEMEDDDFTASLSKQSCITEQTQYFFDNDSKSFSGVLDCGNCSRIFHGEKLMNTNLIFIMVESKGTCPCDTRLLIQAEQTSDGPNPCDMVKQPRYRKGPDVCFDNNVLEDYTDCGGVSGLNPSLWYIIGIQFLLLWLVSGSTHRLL

female rats = conditions: single intra-neural injection into intact sciatic nerve, Liu et al. 2012; cited from earlier work

## O=C(O)CN(CCN(CC(=O)O)CC(=O)O)CC(=O)O [EDTA]
[1]
  effect on MMP-related gelatinolytic bands: repressed all of the MMP-related gelatinolytic bands

## NC[C@@]1(CC(=O)O)C[C@H]2CC[C@H]2C1 [PD-217,014]
[2]
  visceral analgesic effects, potency and efficacy compared with gabapentin: higher potency and efficacy than gabapentin

## ENPVVHFFKNIVTPRTPPPSQ (synthetic wild-type (MBP84-104-WT)) [synthetic algesic myelin basic protein-derived peptide, region 84-104 of human MBP]
Female rats
  mechanical allodynia after injection: causes a robust and long-lasting mechanical allodynia
